Laboratory results published in patent US12145930B1, “4-thiazolidinone derivatives as EGFR inhibitors for anti-tumor activity” (KING FAISAL UNIVERSITY, priority 2024, dated 2024).
“Also recorded” adds a separate entry of the source.

Columns and labels:
[1] = tested on: HCT-116 (colon) carcinoma cell line; experiment: antiproliferative growth assay, HCT-116; assay type: cell-based, human; conditions: for IC50: HCT116 colon carcinoma cells; for potency against colon cancer relative to the standard reference (5-fluorouracil): HCT-116, compared with 5-fluorouracil
[2] = tested on: MCF7 (breast) carcinoma cell line; experiment: antiproliferative growth assay, MCF7; assay type: cell-based, human
[3] = tested on: PC3 (prostate) carcinoma cell line; experiment: antiproliferative growth assay, PC3; assay type: cell-based, human; conditions: PC3 prostate carcinoma cells
Excerpt: It is noteworthy that most of these compounds belong to the thiazolidine library.

EGFR = EGFR (Homo sapiens, UniProt P00533); experiment: EGFR inhibition assay (Alpha Screen system); assay type: biochemical; conditions: Gefitinib as standard
MCF7 cells [4] = experiment: cell cycle analysis by flow cytometry; assay type: cell-based, human; conditions: 24 hours
Excerpt: Typical neoplastic cells evade apoptosis since accumulation of mutations block apoptosis pathways. It was confirmed that the induction of apoptosis upon effective cancer treatment. It is an important regulatory mechanism in cell growth, maturation and death and is associated with a variety of human diseases, including tumors. Chemotherapy agents may lead to an autophagic response, which is one possible method of inducing apoptosis. There is a unique association between autophagy and apoptosis. While chemotherapeutic drugs induce autophagy, cell cycle arrest and cell senescence, it is imperative the induction of apoptosis and permanent removal of neoplastic cells for effective cancer treatment. Studies on the effect of compound 10 on cell cycle development and induction of apoptosis in cancer MCF7 cells was carried out. […] The cells were analyzed by flow cytometry technique.

MCF7 cells [5] = experiment: apoptosis assay, Annexin V/PI; assay type: cell-based, human; conditions: 24 h
Excerpt: It has been detected that the early and late apoptosis produced by the examined compound 10 certainly indicated its capability to induce significant levels of apoptosis with necrosis percent 3.14.

[6] = Homo sapiens, MCF7, MCF7 breast carcinoma cells

Molecule	IC50 ([1]; Homo sapiens, HCT-116)	IC50 [2, 6]	IC50 ([3]; Homo sapiens)	further results
4-(5-(((1H-1,2,4-triazol-3-yl)amino) methylene)-3-benzoyl-4-oxothiazolidin-2-ylidene)amino)benzoic acid [Compound 11]	–	–	–	IC50 (EGFR): 0.0739 ± 0.0016 µM
O=C(O)c1ccc(/N=C2\SCC(=O)N2C(=O)c2ccccc2)cc1 [Compound 4, 4-((3-benzoyl-4-oxothiazolidin-2-ylidene)amino)benzoic acid]	> 100 µM	> 100 µM	> 100 µM	–
CN(C)/C=C1\S/C(=N\c2ccc(C(=O)O)cc2)N(C(=O)c2ccccc2)C1=O [Compound 10, 4-((3-benzoyl-5-((dimethylamino)methylene)-4-oxothiazolidin-2-ylidene)amino) benzoic acid]	12.2 µM	17.4 µM	67.4 µM	Comment (cell cycle result) (MCF7 cells [4]): cell cycle arrest at G1/S phase; also recorded: PreGlapoptosis&Cell; % G0-G1 (MCF7 cells [4]; at IC50 concentration 12.17 μM): 38.71%; % G2/M (MCF7 cells [4]; at IC50 concentration 12.17 μM): 28.85%; % Pre-G1 (MCF7 cells [4]; at IC50 concentration 12.17 μM): 26.15%; % S (MCF7 cells [4]; at IC50 concentration 12.17 μM): 32.44%; Apoptosis Early (MCF7 cells [5]): 6.41%; Apoptosis Late (MCF7 cells [5]): 16.6%; Necrosis (MCF7 cells [5]): 3.14%; potency against colon cancer relative to the standard reference (5-fluorouracil) [1]: higher potency against colon cancer relative to the standard reference
O=C(O)c1ccc(/N=C2\S/C(=C/Nc3nc[nH]n3)C(=O)N2C(=O)c2ccccc2)cc1 [Compound 11]	7.17 µM	11.7 µM	98.5 µM	Apoptosis Early (MCF7 cells [5]): 6.41%; Apoptosis Late (MCF7 cells [5]): 16.6%; Apoptosis Total (MCF7 cells [5]): 26.15%; Necrosis (MCF7 cells [5]): 3.14%; potency against colon cancer relative to the standard reference (5-fluorouracil) [1]: higher potency against colon cancer relative to the standard reference
4-((3-benzoyl-5-(5-((4-chlorophenyl)diazenyl)-2-hydroxybenzylidene)-4-oxothiazolidin-2-ylidene)amino)benzoic acid [Compound 9c]	–	–	–	IC50 [1]: 19.6 µM; potency against colon cancer relative to the standard reference (5-fluorouracil) [1]: higher potency against colon cancer relative to the standard reference; IC50 ([2]; MCF7 breast carcinoma cells): 38 µM; IC50 (EGFR): 0.168 ± 0.0036 µM; IC50 [3]: > 100 µM
4-((3-benzoyl-5-((dimethylamino)methylene)-4-oxothiazolidin-2-ylidene)amino) benzoic acid [Compound 10]	–	–	–	IC50 (EGFR): 0.0674 µM

Now from value to molecule, other results behind:

IC50 ([1]; Homo sapiens, HCT-116)	IC50 [2, 6]	IC50 ([3]; Homo sapiens)	Molecule	further results
> 100 µM	> 100 µM	> 100 µM	O=C(O)c1ccc(/N=C2\S/C(=C/c3ccc(O)cc3O)C(=O)N2C(=O)c2ccccc2)cc1 [Compound 6c, 4-((3-benzoyl-5-(2,4-dihydroxybenzylidene)-4-oxothiazolidin-2-ylidene)amino) benzoic acid]	–
> 100 µM	> 100 µM	> 100 µM	O=C(O)c1ccc(/N=C2\S/C(=C/c3ccc4ccccc4c3)C(=O)N2C(=O)c2ccccc2)cc1 [Compound 6g, 4-((3-benzoyl-5-(naphthalen-2-ylmethylene)-4-oxothiazolidin-2-ylidene)amino) benzoic acid]	–
> 100 µM	> 100 µM	> 100 µM	O=C(O)c1ccc(/N=C2\S/C(=C/c3ccccc3)C(=O)N2C(=O)c2ccccc2)cc1 [Compound 6a, 4-((3-benzoyl-5-(benzylidene)-4-oxothiazolidin-2-ylidene)amino)benzoic acid]	–
> 100 µM	> 100 µM	> 100 µM	O=C(O)c1ccc(/N=C2\S/C(=C/c3cc(/N=N/c4ccccc4)ccc3O)C(=O)N2C(=O)c2ccccc2)cc1 [Compound 9a, 4-((3-benzoyl-5-(2-hydroxy-5-((E)-phenyldiazenyl)benzylidene)-4-oxothiazolidin-2-ylidene)amino) benzoic acid]	–
> 100 µM	> 100 µM	> 100 µM	COc1cc(/C=C2/S/C(=N\c3ccc(C(=O)O)cc3)N(C(=O)c3ccccc3)C2=O)cc(OC)c1 [Compound 6e, 4-((3-benzoyl-5-(3,5-dimethoxybenzylidene)-4-oxothiazolidin-2-ylidene)amino) benzoic acid]	–
> 100 µM	> 100 µM	> 100 µM	COc1ccc(/N=N/c2ccc(O)c(/C=C3/S/C(=N\c4ccc(C(=O)O)cc4)N(C(=O)c4ccccc4)C3=O)c2)cc1 [Compound 9b, 4-((3-benzoyl-5-(2-hydroxy-5-((4-methoxyphenyl)diazenyl)benzylidene)-4-oxothiazolidin-2-ylidene)amino)benzoic acid]	–
> 100 µM	> 100 µM	> 100 µM	CN(C)c1ccc(/C=C2/S/C(=N\c3ccc(C(=O)O)cc3)N(C(=O)c3ccccc3)C2=O)cc1 [Compound 6i, 4-((3-benzoyl-5-(4-(dimethylamino)benzylidene)-4-oxothiazolidin-2-ylidene)amino) benzoic acid]	–
> 100 µM	> 100 µM	> 100 µM	O=C(O)c1ccc(/N=C2\S/C(=C/c3c[nH]c4ccccc34)C(=O)N2C(=O)c2ccccc2)cc1 [Compound 6h, 4-((5-((1H-indol-3-yl)methylene)-3-benzoyl-4-oxothiazolidin-2-ylidene)amino) benzoic acid]	–
> 100 µM	> 100 µM	> 100 µM	O=C(O)c1ccc(/N=C2\S/C(=C/c3ccc(O)cc3)C(=O)N2C(=O)c2ccccc2)cc1 [Compound 6b, 4-((3-benzoyl-5-(4-hydroxybenzylidene)-4-oxothiazolidin-2-ylidene)amino)benzoic acid]	–
12.4 µM	–	> 100 µM	COc1ccc(/C=C2/S/C(=N\c3ccc(C(=O)O)cc3)N(C(=O)c3ccccc3)C2=O)cc1 [Compound 6d, 4((3-benzoyl-5-(4-methoxybenzylidene)-4-oxothiazolidin-2-ylidene)amino) benzoic acid]	potency against colon cancer relative to the standard reference (5-fluorouracil) [1]: higher potency against colon cancer relative to the standard reference; IC50 ([2]; MCF7 breast carcinoma cells): 34.4 µM; IC50 (EGFR): 0.134 ± 0.0029 µM
